{"source": "patent US20070003591A1", "about": "“USE OF A PROPOLIS AS A COATING MATERIAL FOR MEDICAL IMPLANTS” (priority 2005, published 2007)", "origin": "cited, not measured here", "key": {"[1]": {"system": "transcription factor FKB in T cells", "settings": "Márquez et al. 2004"}, "[2]": {"system": "transcription factor FKB in human breast cancer cells of the type MCF-7", "settings": "MCF-7 cells; Watabe et al. 2004"}}, "data": [{"compound": "O=C(/C=C/c1ccc(O)c(O)c1)OCCc1ccccc1", "note": "[caffeic acid phenylethyl ester]", "values": [{"measurement": "inhibitor of the transcription factor FKB", "setting": "[1]", "result": "inhibitor"}, {"measurement": "inhibitor of the transcription factor FKB", "setting": "[2]", "result": "inhibitor"}]}]}
